Data as given in article PMC11073699, “Odorant receptors for floral- and plant-derived volatiles in the yellow fever mosquito, Aedes aegypti (Diptera: Culicidae)” (PLOS ONE, 2024).
“And” between values parts separate entries of the source, which are not always exact repeats. Identical values can stand only once.

Experiments:
AaegOR15 = molecular target: T1, AaegOR15 (Aedes aegypti, UniProt A0A6B9QIR2); experiment: Two-electrode voltage clamp of Xenopus laevis oocytes expressing AaegOR15/Orco (blends, unitary compounds, concentration-response); type: cell-based; conditions: for Raw data (Responses in nA), compounds of blend Alcohols 2: individual oocytes 1-10 (replicates); for Raw Data, concentration-response: no unit printed in this section (nA in the sections above); for Raw data (Responses in nA), phenethyl propionate versus 1-hexanol: separate set of 7 oocytes (replicates); for response of OR15 to unitary compounds: individual compounds
T1 sequence (A0A6B9QIR2 1-390): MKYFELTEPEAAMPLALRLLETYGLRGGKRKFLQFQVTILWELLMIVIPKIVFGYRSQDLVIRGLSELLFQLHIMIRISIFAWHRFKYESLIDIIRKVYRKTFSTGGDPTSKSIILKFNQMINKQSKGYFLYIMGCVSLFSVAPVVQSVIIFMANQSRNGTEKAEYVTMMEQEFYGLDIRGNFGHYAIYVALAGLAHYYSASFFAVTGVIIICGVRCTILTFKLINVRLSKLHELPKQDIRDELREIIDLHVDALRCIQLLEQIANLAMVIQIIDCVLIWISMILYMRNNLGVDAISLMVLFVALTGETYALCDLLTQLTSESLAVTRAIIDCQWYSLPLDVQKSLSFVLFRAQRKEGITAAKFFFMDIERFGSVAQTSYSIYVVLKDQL
T1 sequence (Q178U6 1-478 partner): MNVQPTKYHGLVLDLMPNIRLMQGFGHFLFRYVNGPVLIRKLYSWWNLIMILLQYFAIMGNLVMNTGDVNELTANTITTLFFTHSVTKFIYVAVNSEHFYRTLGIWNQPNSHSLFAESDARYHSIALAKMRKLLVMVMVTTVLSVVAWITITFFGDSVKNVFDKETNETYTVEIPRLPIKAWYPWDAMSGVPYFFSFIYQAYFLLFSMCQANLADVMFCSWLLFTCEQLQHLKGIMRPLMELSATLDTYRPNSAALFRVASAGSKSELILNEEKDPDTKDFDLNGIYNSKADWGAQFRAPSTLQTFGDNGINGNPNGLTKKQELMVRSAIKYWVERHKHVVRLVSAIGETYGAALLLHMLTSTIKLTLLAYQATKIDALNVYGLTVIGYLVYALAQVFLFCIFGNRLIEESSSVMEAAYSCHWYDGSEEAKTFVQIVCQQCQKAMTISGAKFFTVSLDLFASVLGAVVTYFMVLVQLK
Text: (§1) The coding regions of ten AaegOR genes of interest (S3 File) and AaegOrco were synthesized by Twist Bioscience (San Francisco, CA, USA) and cloned into the pENTR plasmid. The Gateway LR directional cloning system (Invitrogen Corp., Carlsbad, CA, USA) was utilized to subclone AaegOR coding regions into the pSP64t-RFA oocyte expression plasmid. Plasmids were purified using the GeneJet Plasmid Miniprep Kit (ThermoFisher Scientific, Waltham, MA, USA). Purified plasmids were sequenced in both directions to confirm coding regions.
(§2) Chemical compounds (S6 File) used in the deorphanization of AaegORs were purchased from Acros Organics (Morris, NJ, USA), Alfa Aesar (Ward Hill, MA, USA), and ThermoFisher Scientific (Waltham, MA, USA) at the highest purity available. Compounds were stored as 1M stocks in 100% DMSO. Serial dilutions of each compound were prepared in 10% DMSO and blended by chemical class.
(§3) pSP64t-RFA: AaegOR clones were linearized using Xbal, and cRNAs were synthesized using the mMESSAGE mMACHINE ® SP6 kit (Life Technologies, Carlsbad, CA, USA). Xenopus laevis stage V-VII oocytes purchased from Xenopus1 (Dexter, MI, USA) were stored at 18°C in Incubation medium (ND96 96 with 5% dialyzed horse serum, 50μg/mL gentamycin, 100μg/mL streptomycin, 100μg/mL penicillin, and 550μg/mL sodium pyruvate). 30nL of cRNA was injected into multiple oocytes using a microinjection syringe pump (World Precision Instruments, Sarasota, FL, USA) maintained at 18°C for 48–72 hrs. Odorant blends were perfused across individual oocytes for 10–15 seconds, held at a resting membrane potential of -80 mV using an OC-725C oocyte clamp (Warner Instruments, LLC, Hamden, CT, USA). Induced currents were measured indirectly using the two-electrode voltage clamp technique (TEVC). Following each stimulus, currents were allowed to return to baseline before further stimulation. Data was captured using the Digidata 1550 B digitizer and PClamp10 software (Molecular Devices, San Jose, CA, USA). Concentration-response curves were generated by perfusing unitary odorants over oocytes at increasing concentrations from [10^-3M] to [10^-9M]. Data were analyzed using GraphPad Prism 8 (GraphPad Software Inc., La Jolla, CA, USA). At least two biological replicates were conducted at each concentration and for each compound. Data for at least seven oocytes responding to each compound was analyzed (S7 File).

AaegOR8 = molecular target: T2, AaegOR8 (Aedes aegypti, UniProt Q16MN0); experiment: Two-electrode voltage clamp of Xenopus laevis oocytes expressing AaegOR8/Orco (blends, unitary compounds, concentration-response); type: cell-based; conditions: for Raw data (Responses in nA) Oocyte 1 / Raw data (Responses in nA) Oocyte 2 / Raw data (Responses in nA) Oocyte 3 / Raw data (Responses in nA) Oocyte 4 / Raw data (Responses in nA) Oocyte 5 / Raw data (Responses in nA) Oocyte 6 / Raw data (Responses in nA) Oocyte 7 / Raw data (Responses in nA) Oocyte 8: Alcohols 2 unitary compounds
T2 sequence (Q16MN0 32-422): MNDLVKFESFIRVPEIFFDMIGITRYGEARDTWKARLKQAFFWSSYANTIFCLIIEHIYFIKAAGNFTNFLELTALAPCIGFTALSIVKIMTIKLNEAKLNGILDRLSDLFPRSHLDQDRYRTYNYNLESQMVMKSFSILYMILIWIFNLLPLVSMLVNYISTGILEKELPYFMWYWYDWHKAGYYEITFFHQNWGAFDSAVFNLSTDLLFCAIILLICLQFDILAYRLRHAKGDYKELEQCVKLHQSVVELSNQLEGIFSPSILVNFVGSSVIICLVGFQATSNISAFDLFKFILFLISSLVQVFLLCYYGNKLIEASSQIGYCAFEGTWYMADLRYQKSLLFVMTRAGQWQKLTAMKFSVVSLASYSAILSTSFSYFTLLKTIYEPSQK
T2 sequence (Q178U6 1-478 partner): T1 sequence (Q178U6 1-478 partner)
Text: as §1, §2, §3

[1] = unitary compounds of Alcohols 2
[2] = AaegOR15/Orco expressing oocytes, TEVC

| Structure (SMILES) | Raw data (Responses in nA), compounds of blend Alcohols 2 (AaegOR15; [1]) | Raw data (Responses in nA) Oocyte 1 (AaegOR8) [nA] | Raw data (Responses in nA) Oocyte 2 (AaegOR8) [nA] | Raw data (Responses in nA) Oocyte 3 (AaegOR8) [nA] | Raw data (Responses in nA) Oocyte 4 (AaegOR8) [nA] | Raw data (Responses in nA) Oocyte 5 (AaegOR8) [nA] | Raw data (Responses in nA) Oocyte 6 (AaegOR8) [nA] | Raw data (Responses in nA) Oocyte 7 (AaegOR8) [nA] | Raw data (Responses in nA) Oocyte 8 (AaegOR8) [nA] | response of OR15 to unitary compounds (AaegOR15; [2]) | further results |
| --- | --- | --- | --- | --- | --- | --- | --- | --- | --- | --- | --- |
| C=CC(C)(O)CCC=C(C)C (racemic) [(+/-)-linalool] | 0.0 nA (2×) and 5.0 nA and 10.0 nA (4×) and 20.0 nA and 40.0 nA and 15.0 nA |  |  |  |  |  |  |  |  |  | Normalized response, compounds of blend Alcohols 2, Average (AaegOR15; unitary compounds of Alcohols 2, average of 10 oocytes, 1-hexanol = 100): 2.4; Normalized response, compounds of blend Alcohols 2 (AaegOR15; unitary compounds of Alcohols 2, individual oocytes 1-10, normalized to the largest response of each oocyte (1-hexanol = 100)): 0.0 (2×) and 1.4 and 1.3 and 1.5 and 1.9 and 1.7 and 5.4 and 5.5 and 5.6 |
| CCCCCCO [1-hexanol] | 50.0 nA and 90.0 nA and 725.0 nA and 780.0 nA and 70.0 nA and 670.0 nA and 1070.0 nA and 580.0 nA and 740.0 nA and 275.0 nA | 10.0 | 10.0 | 40.0 | 15.0 | 30.0 | 170.0 | 120.0 | 10.0 |  | Raw Data, concentration-response (AaegOR15; 1e-7 M, individual oocytes 1-10): 60.0 (2×) and 50.0 (2×) and 70.0 and 55.0 and 40.0 and 75.0 and 15.0 and 35.0; Raw Data, concentration-response (AaegOR15; 5e-7 M, individual oocytes 1-10): 160.0 (2×) and 155.0 and 230.0 and 165.0 and 140.0 and 60.0; Raw Data, concentration-response (AaegOR15; 1e-6 M, individual oocytes 1-10): 180.0 and 350.0 and 220.0 (2×) and 365.0 and 90.0 and 160.0; Raw Data, concentration-response (AaegOR15; 5e-6 M, individual oocytes 1-10): 360.0 and 450.0 and 465.0 and 645.0 and 445.0 and 395.0 and 590.0 and 415.0 and 190.0 and 310.0; Raw Data, concentration-response (AaegOR15; 1e-5 M, individual oocytes 1-10): 410.0 and 480.0 and 510.0 and 730.0 and 495.0 and 435.0 and 655.0 and 450.0 and 360.0; Raw Data, concentration-response (AaegOR15; 5e-5 M, individual oocytes 1-10): 440.0 and 510.0 and 525.0 and 770.0 and 515.0 and 455.0 and 665.0 and 475.0 and 370.0; Raw Data, concentration-response (AaegOR15; 0.0001 M, individual oocytes 1-10): 330.0 and 470.0 and 400.0 and 665.0 and 440.0 and 350.0 and 460.0 and 370.0 and 200.0 and 280.0; EC50 (AaegOR15; AaegOR15/Orco expressing oocytes, TEVC, concentration-response of normalized current): ~1.07 µM and 1.07 µM; Raw data (Responses in nA), phenethyl propionate versus 1-hexanol (AaegOR15): 30.0 nA and 100.0 nA and 180.0 nA and 120.0 nA and 110.0 nA and 90.0 nA and 95.0 nA |
| C=CC(O)CCCCC (centres unmarked) [1-octen-3-ol] | 10.0 nA and 20.0 nA (2×) and 200.0 nA and 230.0 nA and 210.0 nA and 370.0 nA and 110.0 nA and 240.0 nA and 80.0 nA | 190.0 | 160.0 | 280.0 | 780.0 | 980.0 | 2200.0 | 2720.0 | 240.0 |  | EC50 (AaegOR8; AaegOR8/Orco expressing oocytes, TEVC, concentration-response of normalized current): 2.14 µM |
| C[C@@H]1CC[C@H]2C(C)(C)[C@H]3C[C@@]12CC[C@@]3(C)O [Cedrol] | 0.0 nA (3×) and 5.0 nA (2×) and 10.0 nA (3×) and 25.0 nA and 20.0 nA | 0.0 | 0.0 | 0.0 | 0.0 | 0.0 | 0.0 | 0.0 | 0.0 |  |  |
| COc1ccccc1 [anisole] | 10.0 nA and 20.0 nA (2×) and 220.0 nA and 280.0 nA and 290.0 nA and 310.0 nA and 170.0 nA and 260.0 nA and 100.0 nA | 0.0 | 0.0 | 0.0 | 0.0 | 0.0 | 10.0 | 5.0 | 0.0 |  |  |
| CC/C=C\CCO [cis-3-hexen-1-ol] | 20.0 nA and 25.0 nA (2×) and 360.0 nA and 370.0 nA and 350.0 nA and 580.0 nA and 250.0 nA and 520.0 nA and 140.0 nA | 0.0 | 0.0 | 0.0 | 0.0 | 5.0 | 0.0 | 10.0 | 0.0 | additional responses |  |
| OC1CCCCC1 [cyclohexanol] | 5.0 nA and 10.0 nA and 30.0 nA and 55.0 nA (2×) and 0.0 nA and 40.0 nA (2×) and 80.0 nA and 35.0 nA | 0.0 | 0.0 | 0.0 | 0.0 | 0.0 | 0.0 | 0.0 | 0.0 |  |  |
| CCCCCC=O [hexanal] | 0.0 nA (2×) and 10.0 nA and 80.0 nA and 85.0 nA and 110.0 nA (2×) and 160.0 nA and 115.0 nA and 40.0 nA |  |  |  |  |  |  |  |  |  |  |
| CCC(=O)OCCc1ccccc1 [phenethyl propionate] |  |  |  |  |  |  |  |  |  | additional responses | Secondary Ligand (AaegOR15; AaegOR15, secondary ligand identified during the functional characterizations): phenethyl propionate; Normalized response, phenethyl propionate, Average (AaegOR15; average of 7 oocytes, relative to 1-hexanol): 56.0; Raw data (Responses in nA), phenethyl propionate versus 1-hexanol (AaegOR15): 10.0 nA and 100.0 nA and 90.0 nA and 70.0 nA (2×) and 40.0 nA (2×) |
| CCC/C=C/CO [trans-2-hexen-1-ol] | 30.0 nA (2×) and 40.0 nA and 310.0 nA and 480.0 nA (2×) and 375.0 nA and 270.0 nA and 440.0 nA and 135.0 nA | 0.0 | 0.0 | 0.0 | 0.0 | 0.0 | 0.0 | 0.0 | 0.0 | additional responses |  |
